Results reported in patent publication US8415469B2, “Compounds and methods for kinase modulation, and indications therefor” (Plexxikon Inc., priority 2005, dated 2013).
pIC50: −log10 of the molar value.

Key:
Type in all cases: biochemical
Flt1 = target: T1, Flt1 (Homo sapiens, UniProt P17948); test: AlphaScreen kinase assay, Flt1; details: read-out: IC50, activity toward kinase Flt1
T1 construct: P1826.pETN6 BI-PTP FLT1 M799-D1165-X WT; His6 (N); made in house; host or cells: E. coli (PTP1B co-expressed)
T1 sequence (P17948 with tags, fused parts or gaps): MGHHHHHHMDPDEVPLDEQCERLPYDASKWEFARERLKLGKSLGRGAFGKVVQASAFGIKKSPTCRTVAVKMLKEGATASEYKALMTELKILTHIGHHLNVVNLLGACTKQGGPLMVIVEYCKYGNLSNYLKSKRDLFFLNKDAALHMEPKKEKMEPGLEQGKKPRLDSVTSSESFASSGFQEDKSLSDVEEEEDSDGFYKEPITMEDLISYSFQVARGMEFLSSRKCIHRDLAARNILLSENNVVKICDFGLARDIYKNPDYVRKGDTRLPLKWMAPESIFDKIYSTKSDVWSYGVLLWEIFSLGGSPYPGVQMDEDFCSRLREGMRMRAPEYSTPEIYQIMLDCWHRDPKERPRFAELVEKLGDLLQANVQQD

Ret = target: T2, Ret (Homo sapiens, UniProt P07949); test: AlphaScreen kinase assay, Ret; details: read-out: IC50, activity toward kinase Ret
T2 construct: P1378.pET-SF BI-PTP RET H661-R1012 HIS; made in house
T2 sequence (P07949 with tags, fused parts or gaps): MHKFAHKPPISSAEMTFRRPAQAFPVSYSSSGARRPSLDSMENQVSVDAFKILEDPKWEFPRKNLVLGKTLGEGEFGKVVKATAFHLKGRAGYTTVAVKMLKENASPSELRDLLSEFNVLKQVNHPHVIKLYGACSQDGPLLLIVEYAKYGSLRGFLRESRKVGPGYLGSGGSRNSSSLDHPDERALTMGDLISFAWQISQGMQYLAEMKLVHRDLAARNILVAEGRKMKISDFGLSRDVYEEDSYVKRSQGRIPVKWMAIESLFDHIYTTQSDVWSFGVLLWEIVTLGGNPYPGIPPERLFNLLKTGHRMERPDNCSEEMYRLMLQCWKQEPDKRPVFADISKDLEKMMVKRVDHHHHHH

Kdr = target: T3, Kdr (Homo sapiens, UniProt P35968); test: Z'-Lyte FRET kinase assay (Invitrogen), Kdr; details: read-out: IC50, activity toward kinase Kdr
T3 construct: purchased Invitrogen (assay run by Invitrogen)

Jnk3 = target: T4, Jnk3 (Homo sapiens, UniProt P53779); test: AlphaScreen kinase assay, Jnk3; details: read-out: IC50, activity toward kinase Jnk3
T4 construct: purchased Upstate Biotechnology
Text: AlphaScreen assay was used to screen additional kinases. The assay is similarly dependent on the phosphorylation of a peptide substrate. In this assay, an antibody that recognizes phosphorylated substrate is bound to an acceptor bead. The peptide substrate is attached to biotin, which binds to a donor head that contains streptavidin. Thus phosphorylated substrate is bound by antibody and streptavidin, bringing the donor and acceptor heads into close proximity when kinase is not inhibited. The donor produces singlet oxygen which results in emission from the acceptor when they are in close proximity. Conversely, when kinase is inhibited, the donor and acceptor beads are not associated and the emission from the acceptor is reduced.
AlphaScreen assays were done using compounds dissolved in DMSO to a concentration of 20 mM. The compounds were diluted accordingly to the desired final concentrations in each sample well, using 1:3 serial dilution for a total of 8 concentration points. Plates were prepared such that each kinase reaction is 20 μl in 1× kinase buffer, 5% DMSO and 10 μM ATP. After incubation of the kinase reaction for 1 hour at room temperature, 5 μl of donor beads in stop buffer (50 mM EDTA in 1× kinase buffer) was added, the sample was mixed and incubated for 20 minutes at room temperature before adding 5 μl of acceptor beads in stop buffer. The samples were incubated for 60 minutes at room temperature and the signal per well was read on AlphaQuest reader.

Src = target: T5, Src (Homo sapiens, UniProt P12931); test: AlphaScreen kinase assay, Src; details: read-out: IC50, activity toward kinase Src
T5 construct: P1144. pET-N6 BI-PTP SRC V86-L536-X; made in house

Btk = target: T6, Btk (Homo sapiens, UniProt Q06187); test: Z'-Lyte FRET kinase assay (Invitrogen), Btk; details: read-out: IC50, activity toward kinase Btk
T6 construct: purchased Invitrogen (assay run by Invitrogen)

Measured: pIC50

T5 sequence (P12931 with tags, fused parts or gaps): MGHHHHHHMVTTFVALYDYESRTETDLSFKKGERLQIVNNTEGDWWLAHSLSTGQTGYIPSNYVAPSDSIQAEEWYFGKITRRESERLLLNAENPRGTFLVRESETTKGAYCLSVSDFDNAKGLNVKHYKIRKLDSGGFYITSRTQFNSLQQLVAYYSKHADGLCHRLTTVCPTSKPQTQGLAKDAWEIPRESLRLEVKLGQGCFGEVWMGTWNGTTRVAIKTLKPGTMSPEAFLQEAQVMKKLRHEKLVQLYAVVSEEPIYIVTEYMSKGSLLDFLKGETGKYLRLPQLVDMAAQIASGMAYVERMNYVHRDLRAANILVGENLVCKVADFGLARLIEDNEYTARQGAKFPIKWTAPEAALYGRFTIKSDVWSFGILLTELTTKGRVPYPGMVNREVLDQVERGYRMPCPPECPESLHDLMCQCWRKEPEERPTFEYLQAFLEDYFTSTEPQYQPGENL
T6 sequence (Q06187 whole entry): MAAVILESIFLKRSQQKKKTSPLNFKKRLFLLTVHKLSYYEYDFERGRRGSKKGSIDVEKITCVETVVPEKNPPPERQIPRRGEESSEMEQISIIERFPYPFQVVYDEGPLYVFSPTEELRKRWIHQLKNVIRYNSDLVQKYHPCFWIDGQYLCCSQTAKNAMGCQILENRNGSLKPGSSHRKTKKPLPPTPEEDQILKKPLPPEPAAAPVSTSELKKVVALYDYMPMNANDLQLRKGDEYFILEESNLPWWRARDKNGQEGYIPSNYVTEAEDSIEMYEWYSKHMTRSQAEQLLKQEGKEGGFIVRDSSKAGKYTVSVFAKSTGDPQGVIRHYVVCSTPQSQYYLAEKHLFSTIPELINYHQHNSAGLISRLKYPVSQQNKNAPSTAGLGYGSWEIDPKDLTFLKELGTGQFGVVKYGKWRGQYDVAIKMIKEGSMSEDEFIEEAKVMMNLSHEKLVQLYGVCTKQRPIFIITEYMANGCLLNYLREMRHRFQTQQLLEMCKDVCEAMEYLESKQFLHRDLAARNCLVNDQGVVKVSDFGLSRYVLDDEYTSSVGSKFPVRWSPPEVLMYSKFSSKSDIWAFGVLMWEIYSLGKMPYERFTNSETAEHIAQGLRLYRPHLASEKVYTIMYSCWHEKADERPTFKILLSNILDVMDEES
T3 sequence (P35968 20-1356): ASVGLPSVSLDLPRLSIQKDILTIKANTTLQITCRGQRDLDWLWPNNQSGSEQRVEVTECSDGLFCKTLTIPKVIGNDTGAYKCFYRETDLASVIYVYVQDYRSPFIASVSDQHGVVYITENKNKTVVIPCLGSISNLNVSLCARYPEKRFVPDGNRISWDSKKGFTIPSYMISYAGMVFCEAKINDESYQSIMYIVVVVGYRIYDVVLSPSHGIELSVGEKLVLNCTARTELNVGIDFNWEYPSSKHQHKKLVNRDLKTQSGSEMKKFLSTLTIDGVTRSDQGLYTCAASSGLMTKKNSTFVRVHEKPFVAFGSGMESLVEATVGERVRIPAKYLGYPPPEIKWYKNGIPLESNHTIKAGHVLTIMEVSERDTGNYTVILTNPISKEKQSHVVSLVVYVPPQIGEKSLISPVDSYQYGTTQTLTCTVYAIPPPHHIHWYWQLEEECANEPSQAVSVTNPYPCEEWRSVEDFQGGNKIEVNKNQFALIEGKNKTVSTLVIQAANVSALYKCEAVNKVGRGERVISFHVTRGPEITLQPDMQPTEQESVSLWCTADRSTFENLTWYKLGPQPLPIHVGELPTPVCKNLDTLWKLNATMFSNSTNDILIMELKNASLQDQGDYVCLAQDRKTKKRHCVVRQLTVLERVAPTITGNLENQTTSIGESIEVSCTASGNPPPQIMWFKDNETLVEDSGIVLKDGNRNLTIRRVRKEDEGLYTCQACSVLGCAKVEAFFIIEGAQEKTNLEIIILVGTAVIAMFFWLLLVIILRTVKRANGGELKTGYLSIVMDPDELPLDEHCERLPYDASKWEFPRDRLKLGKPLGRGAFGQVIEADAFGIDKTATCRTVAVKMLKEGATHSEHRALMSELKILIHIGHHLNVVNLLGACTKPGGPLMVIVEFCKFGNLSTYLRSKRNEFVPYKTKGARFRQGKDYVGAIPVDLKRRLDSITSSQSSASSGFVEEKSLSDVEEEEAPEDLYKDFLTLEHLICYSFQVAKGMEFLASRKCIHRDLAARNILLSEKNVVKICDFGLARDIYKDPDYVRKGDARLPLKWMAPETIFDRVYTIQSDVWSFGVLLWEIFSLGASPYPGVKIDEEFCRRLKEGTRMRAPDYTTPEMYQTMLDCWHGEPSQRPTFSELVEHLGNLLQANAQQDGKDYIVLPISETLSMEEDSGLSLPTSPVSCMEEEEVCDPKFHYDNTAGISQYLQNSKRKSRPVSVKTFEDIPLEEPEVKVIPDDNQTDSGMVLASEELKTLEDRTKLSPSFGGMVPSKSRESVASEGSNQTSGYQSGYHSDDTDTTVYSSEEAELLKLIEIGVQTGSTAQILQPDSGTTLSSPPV
T4 sequence (P53779 whole entry): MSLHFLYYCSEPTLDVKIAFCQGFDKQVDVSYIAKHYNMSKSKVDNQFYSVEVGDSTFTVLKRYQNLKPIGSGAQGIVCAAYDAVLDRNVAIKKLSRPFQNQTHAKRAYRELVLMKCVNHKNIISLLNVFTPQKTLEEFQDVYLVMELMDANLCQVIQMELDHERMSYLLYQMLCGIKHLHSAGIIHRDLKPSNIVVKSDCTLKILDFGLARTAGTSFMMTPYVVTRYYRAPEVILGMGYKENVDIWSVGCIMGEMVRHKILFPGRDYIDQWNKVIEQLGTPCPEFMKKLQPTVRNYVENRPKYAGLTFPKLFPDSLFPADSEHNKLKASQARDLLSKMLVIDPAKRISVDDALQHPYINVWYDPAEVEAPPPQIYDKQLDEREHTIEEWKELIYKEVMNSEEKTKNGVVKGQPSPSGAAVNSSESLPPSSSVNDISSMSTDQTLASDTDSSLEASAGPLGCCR

CC(=O)Nc1cccc(-c2cnc3[nH]cc(C(=O)c4cc(O)ccc4F)c3c2)c1 [Compound P-0001]
not listed: Btk
≥ 5.00: all other assays above

CC(=O)Nc1cccc(-c2cnc3[nH]cc(C(=O)c4cccc(O)c4F)c3c2)c1 [Compound P-0035, N-{3-[3-(2-Fluoro-3-hydroxy-benzoyl)-1H-pyrrolo[2,3-b]pyridin-5-yl]-phenyl}-acetamide]
≥ 5.00: Ret | Jnk3 | Src

CCCCNC(=O)Nc1ccc(F)c(C(=O)c2c[nH]c3ncc(-c4cccnc4)cc23)c1F [Compound P-1318, 1-Butyl-3-[2,4-difluoro-3-(5-pyridin-3-yl-1H-pyrrolo[2,3-b]pyridine-3-carbonyl)-phenyl]-urea]
≥ 5.00: Flt1 | Kdr | Jnk3 | Src

Nc1cccc(-c2cnc3[nH]cc(C(=O)c4cc(O)ccc4F)c3c2)c1 [Compound P-0002]
≥ 5.00: Flt1 | Ret | Jnk3 | Src

O=C(c1cccc(O)c1)c1c[nH]c2ncccc12 [Compound P-0011]
≥ 5.00: Flt1 | Ret | Kdr | Btk

O=C(c1cccc(O)c1F)c1c[nH]c2ncc(-c3ccccc3)cc12 [Compound P-0036, (2-fluoro-3-hydroxy-phenyl)-(5-phenyl-1H-pyrrolo[2,3-b]pyridin-3-yl)-methanone]
≥ 5.00: Flt1 | Ret | Jnk3 | Src

CS(=O)(=O)c1cccc(-c2cnc3[nH]cc(C(=O)c4cc(O)ccc4F)c3c2)c1 [Compound P-0008, (2-Fluoro-5-hydroxy-phenyl)-[5-(3-methanesulfonyl-phenyl)-1H-pyrrolo[2,3-b]pyridin-3-yl]-methanone]
≥ 5.00: Flt1 | Ret | Jnk3 | Src

Cc1ccc(S(=O)(=O)NCc2c[nH]c3ncccc23)cc1 [Compound P-0058]
≥ 5.00: Ret | Jnk3

COc1cc(OC)cc(C(=O)c2c[nH]c3ncc(-c4cccc(NS(C)(=O)=O)c4)cc23)c1 [Compound P-1426, N-{3-[3-(3,5-Dimethoxy-benzoyl)-1H-pyrrolo[2,3-b]pyridin-5-yl]-phenyl}-methanesulfonamide]
≥ 5.00: Flt1 | Kdr | Btk

Nc1ccnc2[nH]cc(C(=O)c3ccccc3)c12 [Compound P-0029]
≥ 5.00: Ret | Kdr | Btk

Cc1ccc(F)cc1C(=O)c1c[nH]c2ncc(-c3ccc(C(N)=O)cc3)cc12 [Compound P-0050]
≥ 5.00: Ret | Kdr | Btk

O=C(c1cc(O)ccc1F)c1c[nH]c2ncc(-c3cccs3)cc12 [Compound P-0032]
not listed: Btk
≥ 5.00: all other assays above

Cc1c(O)cccc1C(=O)c1c[nH]c2ncc(-c3cccs3)cc12 [Compound P-0114, (3-Hydroxy-2-methyl-phenyl)-(5-thiophen-2-yl-1H-pyrrolo[2,3b]pyridin-3-yl)-methanone]
not listed: Btk
≥ 5.00: all other assays above

O=C(O)/C=C/c1cccc(-c2cnc3[nH]cc(C(=O)c4ccccc4F)c3c2)c1 [Compound P-0033]
not listed: Src
≥ 5.00: all other assays above

Oc1cccc(Cc2c[nH]c3ncc(-c4cccs4)cc23)c1F [Compound P-0052, 2-Fluoro-3-(5-thiophen-2-yl-1H-pyrrolo[2,3-b]pyridin-3-ylmethyl)-phenol]
≥ 5.00: Ret | Kdr | Jnk3 | Btk

O=C(c1cccc(O)c1)c1c[nH]c2nccc(Cl)c12 [Compound P-0012]
≥ 5.00: Flt1 | Ret | Kdr | Btk

COc1ccc(C(=O)c2c[nH]c3ncc(-c4cccc(/C=C/C(=O)O)c4)cc23)c(Cl)c1 [Compound P-0015]
≥ 5.00: Ret | Kdr | Jnk3 | Btk

CCCS(=O)(=O)Nc1ccc(F)c(C(=O)c2c[nH]c3ncc(-c4ccccc4)cc23)c1F [Compound P-0636, Propane-1-sulfonic acid [2,4-difluoro-3-(5-phenyl-1H-pyrrolo[2,3-b]pyridine-3-carbonyl)-phenyl]-amide]
≥ 5.00: Flt1 | Ret | Jnk3

O=C(c1cccc(O)c1)c1c[nH]c2ncc(-c3cccnc3)cc12 [Compound P-0048]
≥ 5.00: Ret | Kdr | Btk

O=C(c1cccc(O)c1)c1c[nH]c2ncc(-c3cccs3)cc12 [Compound P-0196]
not listed: Btk
≥ 5.00: all other assays above

CCCC(=O)Nc1ccc(F)c(Cc2c[nH]c3ncc(-c4cccnc4)cc23)c1F [Compound P-1280]
≥ 5.00: Kdr | Jnk3 | Src

O=C(Nc1ccc(Cc2c[nH]c3ncccc23)cc1)Nc1cccc(C(F)(F)F)c1 [Compound P-0262, 1-[4-(1H-Pyrrolo[2,3-b]pyridin-3-ylmethyl)-phenyl]-3-(3-trifluoromethyl-phenyl)-urea]
≥ 5.00: Ret | Kdr

Oc1cccc(Cc2c[nH]c3ncc(-c4ccsc4)cc23)c1 [Compound P-0056]
≥ 5.00: Flt1 | Ret | Kdr | Jnk3

Oc1ccc(F)c(Cc2c[nH]c3ncc(-c4cccnc4)cc23)c1F [Compound P-0078, 2,4-difluoro-3-(5-pyridin-3-yl-1H-pyrrolo[2,3-b]pyridin-3-ylmethyl)-phenol]
not listed: Btk
≥ 5.00: all other assays above

Oc1cc(O)cc(Cc2c[nH]c3ncc(-c4ccsc4)cc23)c1 [Compound P-0093]
≥ 5.00: Kdr | Jnk3 | Btk

CS(=O)(=O)Nc1cccc(-c2cnc3[nH]cc(C(=O)c4cccc(O)c4F)c3c2)c1 [Compound P-0038, N-{3-[3-(2-Fluoro-3-hydroxy-benzoyl)-1H-pyrrolo[2,3-b]pyridin-5-yl]-phenyl}-methanesulfonamide]
≥ 5.00: Flt1 | Ret | Jnk3 | Src

OCCOc1ccc(F)c(Cc2c[nH]c3ncc(-c4cccnc4)cc23)c1F [Compound P-1394, 2-[2,4-Difluoro-3-(5-pyridin-3-yl-1H-pyrrolo[2,3-b]pyridin-3-ylmethyl)-phenoxy]-ethanol]
≥ 5.00: Kdr | Jnk3 | Src
